In US8431597B2, “Benzimidazole derivatives” (Pfizer Inc., priority 2007, dated 2013):
Counter-ions that a name gives are not always drawn.

Biological target: T1, Smoothened (SMO) (Mus musculus, UniProt P56726)
T1 construct: C3H10T1/2 cells (ATCC #CCL-226) were split and seeded; endogenous in cells; host or cells: C3H10T1/2 (ATCC #CCL-226)
Assay: Smoothened (SMO)/Sonic Hedgehog (SHh) Transient Transcriptional Activation Assay (Gli-luciferase reporter in C3H10T1/2 cells)
Format: cell-based, murine
Settings: C3H 10T1/2, 2 μM compound; transfected C3H10T1/2 cells, recombinant human SHh 250 ng/mL, 20 hours, luciferase readout; read-out: SMO CELL % INHIBITION @ 2 μM
Description: As noted above, the compounds of the invention are useful as inhibitors of SMO. • Methods for determining the in vitro activity of these compounds are described below: Smoothened (SMO)/Sonic Hedgehog (SHh) Transient Transcriptional Activation Assay
On Day 1, 2×10^6 C3H10T1/2 cells (ATCC #CCL-226) were split and seeded in 12 mL of growth medium Basal Medium Eagle (BME, Invitrogen #21010-046) supplemented with 2 mM L-glutamine (Invitrogen #25030-081), 0.1 units/mL penicillin and 0.1 μg/mL streptomycin (Invitrogen #15140-122), and 10% Fetal Bovine Serum (FBS, Invitrogen #16140-071) in a T-75 flask (Costar #3376). They were allowed to attach for 4 hours at 37° C., 5% CO2. The cells were then transfected using Fugene 6 (Roch #11 814 443 001) in the following reaction: 48 μL Fugene 6 and 745 μL Opti-MEM (Invitrogen #31985-070) were mixed and allowed to sit at room temperature for 5 minutes. 8 μg of pGL4.14/mGli(CS) DNA (10× murine Gli response elements and minimal CS promoter) and 0.5 μg of pEGFP DNA (Clontech) were added, gently mixed and incubated at room temperature for 20 minutes. This entire transfection mix was then added to the T-75 flask containing the cells. The cells were incubated at 37° C., 5% CO2 for 18-24 hours.
On Day 2, the transfected cells were trypsinized and seeded into white 96 well plates (Costar #3917) in 100 μL/well of growth medium at a concentration of 20,000 cells/well. The cells were allowed to recover for 4 hours before adding serum starvation medium Dulbecco's Modified Eagle Medium (DMEM, Invitrogen #21063-029) supplemented with 2 mM L-glutamine, 0.1 units/mL penicillin and 0.1 μg/mL streptomycin, and 0.5% Calf Serum (CS, Invitrogen #26170-043). The growth media was aspirated off, and the cells were rinsed with 100 μL of starvation media. 95 μL of starvation media was then added to each well. The cells were incubated for 20 hours at 37° C., 5% CO2.
On Day 3, cells were dosed with test compounds at a final concentration ranging from 2 μM to 2 nM. Immediately after dosing cells with compounds, recombinant human sonic hedgehog (SHh, R&D Systems #1845-SH) was add to a final concentration of 250 ng/mL. A 25 μg vial of SHh was reconstituted with 250 μL PBS/0.1% BSA to give a 100 ng/μL working stock. This working stock was then diluted 1:20 in starvation media. The transfected cells were incubated with compounds and SHh for 20 hours at 37° C., 5% CO2.
Luciferase assays were conducted on Day 4 using Dual-Glo Luciferase assay system (Promega #E2940) according to Promega's protocol. Briefly, Dual-Glo luciferase reagent was made up and 100 μL were added to each well of the 96 well plate containing media. Plates were shaken at room temperature for 10 minutes, and then read on TopCount (Perkin-Elmer). The luminescence was recorded.

T1 sequence (P56726 33-793): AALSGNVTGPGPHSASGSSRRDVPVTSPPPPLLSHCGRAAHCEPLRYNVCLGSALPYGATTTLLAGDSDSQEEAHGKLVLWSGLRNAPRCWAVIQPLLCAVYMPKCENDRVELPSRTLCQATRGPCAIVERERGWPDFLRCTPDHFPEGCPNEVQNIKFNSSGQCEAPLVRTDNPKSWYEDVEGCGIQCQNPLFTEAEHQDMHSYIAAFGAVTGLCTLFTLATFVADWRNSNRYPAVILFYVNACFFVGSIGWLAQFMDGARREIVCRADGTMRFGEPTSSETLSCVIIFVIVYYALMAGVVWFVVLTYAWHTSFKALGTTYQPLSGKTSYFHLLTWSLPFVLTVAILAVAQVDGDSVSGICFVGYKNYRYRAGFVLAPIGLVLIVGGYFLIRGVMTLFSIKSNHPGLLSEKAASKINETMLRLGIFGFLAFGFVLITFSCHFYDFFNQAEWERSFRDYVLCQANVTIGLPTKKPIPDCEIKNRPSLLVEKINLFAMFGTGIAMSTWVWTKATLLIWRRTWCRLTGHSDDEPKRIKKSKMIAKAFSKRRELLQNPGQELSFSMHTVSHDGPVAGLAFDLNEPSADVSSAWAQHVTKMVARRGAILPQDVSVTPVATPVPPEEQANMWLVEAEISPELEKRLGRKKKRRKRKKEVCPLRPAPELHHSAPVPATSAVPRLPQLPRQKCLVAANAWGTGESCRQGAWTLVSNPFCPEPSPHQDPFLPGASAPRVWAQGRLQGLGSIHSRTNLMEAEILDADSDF

Row | Compound | inhibition at 2 µM [%]
1 | CN1CC[C@@H](NC(=O)c2ccc3c(c2)CCCO3)C[C@@H]1c1nc2ccccc2[nH]1 [Example 33, N-[(2R,4R)-2-(1H-benzimidazol-2-yl)-1-methylpiperidin-4-yl]chromane-6-carboxamide hydrochloride] | 114
2 | CN1CC[C@@H](NC(=O)c2ccc3c(c2)CCC(=O)N3)C[C@@H]1c1nc2ccccc2[nH]1 [Example 87, N-[(2R,4R)-2-(1H-benzimidazol-2-yl)-1-methylpiperidin-4-yl]-2-oxo-1,2,3,4-tetrahydroquinoline-6-carboxamide hydrochloride] | 92.3
3 | N#Cc1ccc(NC(=O)N[C@@H]2CCN(CCc3ccccc3)[C@@H](c3nc4ccccc4[nH]3)C2)cc1 [Example 98, 1-[(2R,4R)-2-(1H-benzimidazol-2-yl)-1-(2-phenyl-ethyl)piperidin-4-yl)-3-(4-cyanophenyl)urea] | 74.5
4 | Cc1cc2nc([C@H]3C[C@H](NC(=O)c4ccc5c(c4)OCCO5)CCN3C)[nH]c2cc1C [Example 49, N-[(2R,4R)-2-(5,6-dimethyl-1H-benzimidazol-2-yl)-1-methylpiperidin-4-yl]-2,3-dihydro-1,4-benzodioxine-6-carboxamide hydrochloride] | 105
5 | COc1ccc(NC(=O)N[C@@H]2CCN(C)[C@@H](c3nc4ccccc4[nH]3)C2)cn1 [Example 83, 1-[(2R,4R)-2-(1H-benzimidazol-2-yl)-1-methylpiperidin-4-yl]-3-(6-methoxypyridin-3-yl)urea hydrochloride] | 96.1
6 | COc1ccc(NC(=O)N[C@@H]2CCN(C)[C@@H](c3nc4ccc(F)cc4[nH]3)C2)cn1 [Example 139, 1-[(2R,4R)-2-(6-fluoro-1H-benzimidazol-2-yl)-1-methylpiperidin-4-yl]-3-(6-methoxypyridin-3-yl)urea hydrochloride] | 106
7 | CN1CC[C@@H](NC(=O)Cn2nc3ccccc3n2)C[C@@H]1c1nc2ccccc2[nH]1 [Example 106, N-[(2R,4R)-2-(1H-benzimidazol-2-yl)-1-methylpiperidin-4-yl]-2-(2H-1,2,3-benzotriazol-2-yl)acetamide trifluoroacetate] | 94.5
8 | Cc1cc(NC(=O)N[C@@H]2CCN(C)[C@@H](c3nc4ccccc4[nH]3)C2)cnc1C [Example 71, 1-[(2R,4R)-2-(1H-benzimidazol-2-yl)-1-methylpiperidin-4-yl]-3-(5,6-dimethylpyridin-3-yl)urea hydrochloride] | 101
9 | CC(C)CN1CC[C@@H](NC(=O)Nc2ccc(C#N)cc2)C[C@@H]1c1nc2ccccc2[nH]1 [Example 39, 1-[(2R,4R)-2-(1H-benzimidazol-2-yl)-1-isobutylpiperidin-4-yl]-3-(4-cyanophenyl)urea] | 106
10 | O=C(N[C@@H]1CCN(C2CCC2)[C@@H](c2nc3ccccc3[nH]2)C1)c1ccc2c(c1)OCCO2 [Example 82, N-[(2R,4R)-2-(1H-benzimidazol-2-yl)-1-cyclobutyl-piperidin-4-yl]-2,3-dihydro-1,4-benzodioxine-6-carboxamide hydrochloride] | 96.8
11 | CN1CC[C@@H](NC(=O)c2ccc3nonc3c2)C[C@@H]1c1nc2ccccc2[nH]1 [Example 119, N-[(2R,4R)-2-(1H-benzimidazol-2-yl)-1-methylpiperidin-4-yl]-2,1,3-benzoxadiazole-5-carboxamide trifluoroacetate] | 64.5
12 | Cc1ccc2[nH]c([C@H]3C[C@H](NC(=O)Nc4ccc(C(F)(F)F)nc4)CCN3C)nc2c1 [Example 65, 1-[(2R,4R)-1-methyl-2-(5-methyl-1H-benzimidazol-2-yl)piperidin-4-yl]-3-[6-(trifluoromethyl)pyridin-3-yl]urea hydrochloride] | 103
13 | Cc1cc(NC(=O)N[C@@H]2CCN(C)[C@@H](c3nc4ccccc4[nH]3)C2)cnc1F [Example 40, 1-[(2R,4R)-2-(1H-benzimidazol-2-yl)-1-methylpiperidin-4-yl]-3-(6-fluoro-5-methylpyridin-3-yl)urea hydrochloride] | 106
14 | Cc1ccc(NC(=O)N[C@@H]2CCN(C3CCC3)[C@@H](c3nc4cc(C)c(C)cc4[nH]3)C2)cn1 [Example 152, 1-[(2R,4R)-1-cycobutyl-2-(5,6-dimethy-1H-benzimidazol-2-yl)piperidin-4-yl]-3-(6-methylpyridin-3-yl)urea triflouroacetate] | 106
15 | CN1CC[C@@H](NC(=O)Nc2ccc3c(c2)OCCO3)C[C@@H]1c1nc2ccccc2[nH]1 [Example 67, 1-[(2R,4R)-2-(1H-benzimidazol-2-yl)-1-methylpiperidin-4-yl]-3-(2,3-dihydro-1,4-benzodioxin-6-yl)urea hydrochloride] | 103
16 | CCN1CC[C@@H](NC(=O)c2ccc3c(c2)OCCO3)C[C@@H]1c1nc2ccccc2[nH]1 [Example 44, N-[(2R,4R)-2-(1H-benzimidazol-2-yl)-1-ethylpiperidin-4-yl]-2,3-dihydro-1,4-benzodioxine-6-carboxamide hydrochloride] | 105
17 | Cc1ccc(NC(=O)N[C@@H]2CCN(C)[C@@H](c3nc4cc(C)c(C)cc4[nH]3)C2)cn1 [Example 131, 1-[(2R(4R)-2-(5,6-dimethyl-1H-benzimidazol-2-yl)-1-methylpiperidin-4-yl]-3-(6-methylpyridin-3-yl)urea hydrochloride] | 105
18 | CN1CC[C@@H](NC(=O)c2ccc3c(c2)OCCO3)C[C@@H]1c1nc2ccc(C#N)cc2[nH]1 [Example 63, N-[(2R,4R)-2-(6-cyano-1H-benzimidazol-2-yl)-1-methylpiperidin-4-yl]-2,3-dihydro-1,4-benzodioxine-6-carboxamide hydrochloride] | 104
19 | Cc1ccc(NC(=O)N[C@@H]2CCN(C)[C@@H](c3nc4ccccc4[nH]3)C2)cn1 [Example 81, 1-[(2R,4R)-2-(1H-benzimidazol-2-yl)-1-methylpiperidin-4-yl]-3-(6-methylpyridin-3-yl)urea hydrochloride] | 97.8
20 | CN1CC[C@@H](NC(=O)Nc2cc(F)cc3c2OCOC3)C[C@@H]1c1nc2ccccc2[nH]1 [Example 41, 1-[(2R,4R)-2-(1H-benzimidazol-2-yl)-1-methylpiperidin-4-yl]-3-(6-fluoro-4H-1,3-benzodioxin-8-yl)urea hydrochloride] | 106
21 | CN1CC[C@@H](NC(=O)C(F)(F)c2ccccc2)C[C@@H]1c1nc2ccccc2[nH]1 [Example 122, N-[(2R,4R)-2-(1H-benzimidazol-2-yl)-1-methylpiperidin-4-yl]-2(2-difluoro-2-phenylacetamide trifluoroacetate] | 57.5
22 | CN1CC[C@@H](NC(=O)Nc2ccc(C#N)cc2)C[C@@H]1c1nc2cc(Cl)ccc2[nH]1 [Example 64, 1-[(2R,4R)-2-(5-chloro-1H-benzimidazol-2-yl)-1-methylpiperidin-4-yl]-3-(4-cyanophenyl)urea hydrochloride] | 103
23 | CN1CC[C@@H](NC(=O)c2ccc(-c3cnco3)cc2)C[C@@H]1c1nc2ccccc2[nH]1 [Example 92, N-[(2R,4R)-2-(1H-benzimidazol-2-yl)-1-methylpiperidin-4-yl]-4-(1,3-oxazol-5-yl)benzamide hydrochloride] | 86.4
24 | CN1CC[C@@H](NC(=O)c2cc3ccccc3n2C)C[C@@H]1c1nc2ccccc2[nH]1 [Example 113, N-[(2R,4R)-2-(1H-benzimidazol-2-yl)-1-methylpiperidin-4-yl]-1-methyl-1H-indole-2-carboxamide trifluoroacetate] | 76.1
25 | Cc1ccc2[nH]c([C@H]3C[C@H](NC(=O)Nc4ccc(C)nc4)CCN3C)nc2c1 [Example 130, 1-[(2R,4R)-1-methyl-2-(5-methyl-1H-benzimidazol-2-yl)piperidin-4-yl]-3-(6-methylpyridin-3-yl)urea hydrochloride] | 106
